How the values were obtained:
Format in all cases: cell-based
[1] = system: HeLa cells that express GFP-tagged CD81; test: Confocal imaging of EVs or precursor EVs (colocalization of BODIPY with GFP-tagged CD81); settings: 30 min
Method: (§1) Pre-seeded in 35-mm confocal dishes (SPL Life Sciences, Pocheon, South Korea), cells were grown to the desired confluence before transfection. The transfection medium, formulated in 1 mL of OptiMEM (Gibco, Waltham, MA), contains 7.5 μL of Lipofectamine 3000 (Invitrogen) and either 2.5 μg/mL GFP-CD81 or EGFP-tubulin-6 plasmids. After incubating the cells with the transfection medium for 4 h, the cells were switched to 2 mL of plasmid-free complete DMEM for 2 d. After that, the transfected cells were incubated with leuco-BODIPY for further confocal imaging.
(§2) Confocal imaging of EVs or precursor EVs To prepare the stock of the probe for our cell-based experiments, BODIPY was pre-dissolved in 100% DMSO (2 mM). After dissolution, the probe predominantly assumes the leuco-BODIPY form, as evidenced by its light-yellow color. Cells that express marker proteins of interest (i.e., GFP-tagged CD81 or EGFP-tagged tubulin-6) were pre-seeded in 35-mm confocal dishes. After removing the culture medium, the transfected cells were incubated with 1 mL of 2 μM leuco-BODIPY [dissolved in phenol red-free DMEM (Gibco) with […] (Invitrogen) for solubilization] for 30 min. The EVs in the medium or precursor EVs inside cells were imaged under a Leica SP8 confocal microscope with a 63× objective. The excitation wavelengths of the GFP-tagged proteins and BODIPY were 488 nm and 575 nm, respectively. The emission wavelengths of the GFP-tagged proteins and BODIPY were 495-525 nm and 585-710 nm, respectively. All images were taken at the same laser settings.
(§3) Then, we seeded HeLa, A549, or HEK293 cells that express GFP-tagged CD81 in a confocal dish and incubated the cells with phenol red-free medium containing 2 μM leuco-BODIPY and 0.1% DMSO for 30 min. Note that this probe is predominantly in its leuco-BODIPY form when dissolved in DMSO, as evidenced by its light-yellow color. We obtained confocal images of the cell-seeded medium without harvesting the EVs or rinsing the cells (FIGS. 2A, 30-31). Representative images of their extracellular space depict granular or spherical pockets of fluorescence from BODIPY (red) amidst a dark background. […] The fluorescent pockets of BODIPY are submicron-sized or micron-sized, larger than the reported sizes of exosomes (50-200 nm).^36 As the resolution limit of confocal microscopy may overestimate the size of EVs, we isolated EVs from the cell-seeded medium for nanoparticle tracking analysis (NTA; FIG. 2B). The hydrodynamic size distribution of the EVs lies between about 50 nm and about 400 nm, with peak EV diameters of 151 nm, 104 nm, and 156 nm for HeLa, A549, and HEK293 cells, respectively. As these peak EV sizes corroborate the typical sizes of exosomes, we conclude that the EVs detected are mostly exosomes, with a smaller portion of larger ectosomes, clustered exosomes, or extracellular MVBs (FIGS. 4A-4C).
(§4) Next, we attempted to use our probe for imaging intracellular precursor EVs before their secretion to the extracellular milieu. Again, we added leuco-BODIPY (dissolved in DMSO) to culture medium seeded with HeLa, A549, or HEK293 cells that express GFP-tagged CD81 for 30 min (FIG. 3). […] Contrarily, the overlap between BODIPY and GFP-CD81 fluorescence in the cytoplasm is moderate, characterized by Pearson's colocalization coefficients of 0.72, 0.66, and 0.63 for HeLa, A549, and HEK293 cells, respectively. As a negative control, we captured confocal images of the three cell lines but without adding leuco-BODIPY to the medium.

[2] = system: A549 cells that express GFP-tagged CD81; test: as above; settings: 30 min
Method: as §1, §2, §3, §4

[3] = system: HEK293 cells that express GFP-tagged CD81; test: as above; settings: 30 min
Method: as §1, §2, §3, §4

HEK293 cells = test: Pathway for the cellular entry of the probe (NaN3 or 4 °C block of energy-dependent endocytosis); settings: 5 μM probe, 30 min
Method: (§5) FIGS. 29A-29F Pathway for the cellular uptake of the probe. The cells were either (FIGS. 29A-29C) treated with sodium azide (NaN3) or (FIGS. 29D-29F) incubated at 4° C. for blocking energy-dependent endocytosis (red bars). Cells under normal cell culture conditions (37° C. without NaN3) serve as the positive control (green bars). Statistical analysis was conducted by two-tailed Student's t test. Not significant (ns) P>0.05. Error bar indicates standard deviation.
(§6) Cells were firstly cultured in a 96-well plate and allowed to reach about 90% confluence. In our first experiment, the cells were either pretreated in 0.1 mL of complete DMEM containing 5 mM NaN3 (Sigma) at 37° C. for 3 h. After that, the medium was replaced by 0.1 mL of complete medium containing 5 mM NaN3 and 5 μM leuco-BODIPY (in 0.5% DMSO) at 37° C. for another 30 min. In our second experiment, the cells were preincubated with 0.1 mL of complete DMEM inside a 4° C. refrigerator for 30 min. After that, the medium was replaced by 0.1 mL of complete medium containing 5 μM leuco-BODIPY (in 0.5% DMSO) for another 30 min and incubated at 4° C. As the […], cells were incubated with 0.1 mL of complete medium containing 5 μM leuco-BODIPY (in 0.5% DMSO) at 37° C. for 30 min. At the end of both experiments, the fluorescence of the treated cells was measured by a microplate reader (ThermoFisher Fluoroskan Ascent, Waltham, MA) at an excitation wavelength of 584 nm and emission wavelength of 612 nm.
(§7) We studied the mechanism for the cellular uptake of our probe by a pharmacological approach.

HeLa cells = test: as above; settings: 5 μM probe, 30 min
Method: as §5, §6, §7

A549 cells = test: as above; settings: 5 μM probe, 30 min
Method: as §5, §6, §7

[4] = extracellular space (CD81-enriched exosomes), 2 μM, no rinsing
[5] = pretreatment with sodium azide (5 mM)

## CCOC(=O)C(=Cc1ccc2n1[B-](F)(F)n1c(C=C(C(=O)OCC)C(=O)OCC)ccc1C2(OC)c1ccncc1)C(=O)OCC [leuco-BODIPY]
[1]; [4]
  Pearson's colocalization coefficient between BODIPY and CD81-GFP fluorescence: 0.92
[1]; in the cytoplasm
  Pearson's colocalization coefficient between BODIPY and GFP-CD81 fluorescence: 0.72
[1]; on the pseudopodia
  Pearson's colocalization coefficient between BODIPY and GFP-CD81 fluorescence: 0.94
[2]; [4]
  Pearson's colocalization coefficient between BODIPY and CD81-GFP fluorescence: 0.85
[2]; in the cytoplasm
  Pearson's colocalization coefficient between BODIPY and GFP-CD81 fluorescence: 0.66
[2]; on the pseudopodia
  Pearson's colocalization coefficient between BODIPY and GFP-CD81 fluorescence: 0.90
[3]; [4]
  Pearson's colocalization coefficient between BODIPY and CD81-GFP fluorescence: 0.94
[3]; in the cytoplasm
  Pearson's colocalization coefficient between BODIPY and GFP-CD81 fluorescence: 0.63
[3]; on the pseudopodia
  Pearson's colocalization coefficient between BODIPY and GFP-CD81 fluorescence: 0.86
HEK293 cells; preincubation at 4 °C
  cellular uptake of the probe: did not significantly affect
HEK293 cells; [5]
  cellular uptake of the probe: did not significantly affect
HeLa cells; preincubation at 4 °C
  cellular uptake of the probe: did not significantly affect
HeLa cells; [5]
  cellular uptake of the probe: did not significantly affect
A549 cells; preincubation at 4 °C
  cellular uptake of the probe: did not significantly affect
A549 cells; [5]
  cellular uptake of the probe: did not significantly affect

— US12578273B2, “Ph-reversible leuco-BODIPY probe for in situ visualization of extracellular vesicles and their secretion from living cells” (The Chinese University of Hong Kong, priority 2021, dated 2026)
